Experimental data: ChEMBL document CHEMBL1154227, “Guttiferones O and P, prenylated benzophenone MAPKAPK-2 inhibitors from Garcinia solomonensis” (J Nat Prod, 2009)

Target: MAP kinase-activated protein kinase 2 (Homo sapiens, UniProt P49137)
Assay: Inhibition of GST-tagged MAPKAPK2 assessed as [33P] incorporation after 40 mins by scintillation proximity assay

Sequence of MAP kinase-activated protein kinase 2 (P49137 whole entry): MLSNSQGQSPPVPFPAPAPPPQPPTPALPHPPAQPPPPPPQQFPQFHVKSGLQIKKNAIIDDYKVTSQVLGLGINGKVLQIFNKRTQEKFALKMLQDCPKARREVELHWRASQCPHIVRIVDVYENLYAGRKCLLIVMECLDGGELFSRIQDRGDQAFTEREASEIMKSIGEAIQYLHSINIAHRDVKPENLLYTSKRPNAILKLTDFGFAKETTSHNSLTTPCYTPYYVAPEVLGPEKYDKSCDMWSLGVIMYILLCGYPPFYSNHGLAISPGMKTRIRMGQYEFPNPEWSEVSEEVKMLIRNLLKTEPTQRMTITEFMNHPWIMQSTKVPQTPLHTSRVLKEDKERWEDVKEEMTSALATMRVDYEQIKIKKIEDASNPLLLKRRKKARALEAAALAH

**Q.** `CC(C)=CCC/C(C)=C/C[C@]12C[C@@H](CC=C(C)C)C(C)(C)[C@](C/C=C(\C)CCC=C(C)C)(C(=O)C(C(=O)c3ccc(O)c(O)c3)=C1O)C2=O` [GUTTIFERONE O] was tested. Which IC50 did it give?
**A.** The IC50 was 22 µM.

**Q.** For `CC(C)=CCC/C(C)=C/C[C@]12C[C@@H](CC=C(C)C)[C@](C)(CCC=C(C)C)[C@](CC=C(C)C)(C(=O)C(C(=O)c3ccc(O)c(O)c3)=C1O)C2=O` [GUTTIFERONE P], which IC50 is on record?
**A.** The IC50 was 22 µM.
